This note sets out measurements from paper PMC3255464 (2011).

This test concerns the target galectin-3 carbohydrate recognition domain (Gal3C) (Homo sapiens, UniProt P17931). As to the kind of experiment: X-ray crystal structure at […] Å. It is filed as binding.

Broadly, the Kd is the free concentration of one partner at which half of the binding sites on the other are occupied at equilibrium, for simple one-to-one binding.

Molecules are shown by their SMILES. A value given as a limit tells only on which side of the number the result lay.

galectin-3 carbohydrate recognition domain (Gal3C), sequence (P17931 113-250): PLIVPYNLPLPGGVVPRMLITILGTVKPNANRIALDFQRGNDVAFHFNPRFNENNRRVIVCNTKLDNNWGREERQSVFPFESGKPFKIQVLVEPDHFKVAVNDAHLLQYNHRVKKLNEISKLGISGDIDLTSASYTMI

On to `OCC(O)CO` [glycerol], for which the Kd was > 100 mM.
